# From ChEMBL document CHEMBL3124857, “Encoded library technology as a source of hits for the discovery and lead optimization of a potent and selective class of bactericidal direct inhibitors of Mycobacterium tuberculosis InhA” (J Med Chem, 2014)
# The source made the active and inactive calls. No cut-off for these calls is given here.
# Assays:
# [1] = tested on: Mycobacterium tuberculosis; test: Antitubercular activity against Mycobacterium tuberculosis H37Rv infected in C57BL/6 mouse assessed as reduction of bacterial CFU in lung at 30 mg/kg, po administered for 8 days measured 24 hrs post last dose relative to control; assay type: functional
# [2] = tested on: Mycobacterium tuberculosis; test: Bactericidal activity against Mycobacterium tuberculosis H37Rv assessed as log reduction of bacterial CFU at 1.2 ug/mL after 1 week; assay type: functional, organism-based
# [3] = tested on: Escherichia coli; test: Antibacterial activity against Escherichia coli assessed as growth inhibition by broth microdilution assay; assay type: functional
# [4] = Half life in mouse liver microsomes at 0.5 uM; assay type: ADME, Microsome
# [5] = biological target: Cytochrome P450 3A4 (Homo sapiens, UniProt P08684); test: Inhibition of human CYP3A4 by fluorescence assay; assay type: ADME
# [6] = tested on: Hepatocyte; test: Drug metabolism in human hepatocytes assessed as N-dealkylated ethylamide metabolite formation; assay type: ADME, cell-based
# [7] = Half life in mouse hepatocytes at 10 uM; assay type: ADME, cell-based, Hepatocyte
# [8] = biological target: Cytochrome P450 2D6 (Homo sapiens, UniProt P10635); test: Inhibition of human CYP2D6 by fluorescence assay; assay type: ADME
# [9] = Lipophilicity, log D of the compound at pH 7.4 by chromatographic analysis; assay type: physicochemical; conditions: buffer
# [10] = biological target: Voltage-gated inwardly rectifying potassium channel KCNH2 (Homo sapiens, UniProt Q12809); test: Displacement of [3H]-dofetilide from human ERG after 1 hr by liquid scintillation counting analysis
# [11] = tested on: Haemophilus influenzae; test: Antibacterial activity against Haemophilus influenzae assessed as growth inhibition by broth microdilution assay; assay type: functional
# [12] = tested on: Hepatocyte; test: Drug metabolism in human hepatocytes assessed as N-dealkylated pyrazole metabolite formation; assay type: ADME, cell-based
# [13] = tested on: Mycobacterium tuberculosis; test: Antitubercular activity against wild type Mycobacterium tuberculosis H37Rv ATCC 25618 assessed as growth inhibition after 6 days by resazurin dye-based assay; assay type: functional; conditions: H37Rv ATCC 25618, 144 h
# [14] = Intrinsic clearance in mouse hepatocytes at 1 uM; assay type: ADME, cell-based, Hepatocyte; conditions: read-out: CLH
# [15] = biological target: T1, Cytochrome P450 1A2 (Homo sapiens, UniProt P05177); test: Inhibition of human CYP1A2 by fluorescence assay; assay type: ADME
# T1 sequence (P05177 whole entry): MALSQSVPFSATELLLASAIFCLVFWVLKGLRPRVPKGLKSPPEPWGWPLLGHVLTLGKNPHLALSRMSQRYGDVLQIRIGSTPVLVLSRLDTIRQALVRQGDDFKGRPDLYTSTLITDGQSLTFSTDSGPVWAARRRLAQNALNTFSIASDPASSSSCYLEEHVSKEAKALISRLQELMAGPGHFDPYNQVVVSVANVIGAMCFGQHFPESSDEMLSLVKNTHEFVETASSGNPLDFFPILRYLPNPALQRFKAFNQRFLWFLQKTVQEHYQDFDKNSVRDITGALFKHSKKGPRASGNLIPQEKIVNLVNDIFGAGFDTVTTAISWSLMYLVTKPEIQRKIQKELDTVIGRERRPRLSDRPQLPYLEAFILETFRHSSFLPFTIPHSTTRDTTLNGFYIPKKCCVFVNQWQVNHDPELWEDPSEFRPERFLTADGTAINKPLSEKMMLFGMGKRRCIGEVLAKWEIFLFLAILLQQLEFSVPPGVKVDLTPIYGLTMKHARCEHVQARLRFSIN
# [16] = tested on: HepG2; test: Cytotoxicity against human HepG2 cells after 48 hrs by resazurin dye-based fluorescence assay; assay type: cell-based; conditions: HepG2, 48 h
# [17] = Kinetic solubility of the compound after 1 hr by CLND assay; assay type: physicochemical; conditions: read-out: Kinetic_solubility
# [18] = tested on: Streptococcus pneumoniae; test: Antibacterial activity against Streptococcus pneumoniae assessed as growth inhibition by broth microdilution assay; assay type: functional
# [19] = tested on: Hepatocyte; test: Drug metabolism in mouse hepatocytes assessed as oxidized metabolite formation; assay type: ADME, cell-based
# [20] = tested on: Moraxella catarrhalis; test: Antibacterial activity against Moraxella catarrhalis assessed as growth inhibition by broth microdilution assay; assay type: functional
# [21] = tested on: Hepatocyte; test: Drug metabolism in mouse hepatocytes assessed as N-dealkylated pyrazole metabolite formation; assay type: ADME, cell-based
# [22] = Permeability of the compound by artificial membrane permeability assay; assay type: physicochemical; conditions: PAMPA; read-out: permeability
# [23] = biological target: Cytochrome P450 2C9 (Homo sapiens, UniProt P11712); test: Inhibition of human CYP2C9 by fluorescence assay; assay type: ADME
# [24] = tested on: Liver microsome; test: Intrinsic clearance in human liver microsomes at 0.5 uM; assay type: ADME
# [25] = tested on: Hepatocyte; test: Drug metabolism in mouse hepatocytes assessed as N-dealkylated ethylamide metabolite formation; assay type: ADME, cell-based
# [26] = tested on: Hepatocyte; test: Drug metabolism in human hepatocytes assessed as oxidized metabolite formation; assay type: ADME, cell-based
# [27] = Half life in human liver microsomes at 0.5 uM; assay type: ADME
# [28] = biological target: T2, Enoyl-[acyl-carrier-protein] reductase [NADH] (Mycobacterium tuberculosis, UniProt P9WGR1); test: Inhibition of Mycobacterium tuberculosis full length biotinylated InhA (270 amino acids) using DDCoA as substrate assessed as NADH oxidation by fluorimetric analysis
# T2 sequence (P9WGR1 whole entry): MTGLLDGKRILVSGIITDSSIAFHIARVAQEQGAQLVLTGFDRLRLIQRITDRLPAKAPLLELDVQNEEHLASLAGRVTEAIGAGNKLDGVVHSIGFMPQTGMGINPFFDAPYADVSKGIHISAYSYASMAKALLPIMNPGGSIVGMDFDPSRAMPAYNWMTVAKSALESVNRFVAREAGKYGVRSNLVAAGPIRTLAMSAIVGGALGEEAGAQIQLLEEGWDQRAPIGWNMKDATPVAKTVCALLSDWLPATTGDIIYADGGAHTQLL
# [29] = tested on: Streptococcus pyogenes; test: Antibacterial activity against Streptococcus pyogenes assessed as growth inhibition by broth microdilution assay; assay type: functional
# [30] = biological target: Cytochrome P450 2C19 (Homo sapiens, UniProt P33261); test: Inhibition of human CYP2C19 by fluorescence assay; assay type: ADME
# [31] = tested on: Enterococcus faecalis; test: Antibacterial activity against Enterococcus faecalis assessed as growth inhibition by broth microdilution assay; assay type: functional
# [32] = Intrinsic clearance in mouse liver microsomes at 0.5 uM; assay type: ADME, Microsome
# [33] = Intrinsic clearance in human hepatocytes at 1 uM; assay type: ADME, cell-based, Hepatocyte; conditions: read-out: CLH
# [34] = Half life in human hepatocytes at 10 uM; assay type: ADME, cell-based, Hepatocyte
# [35] = Plasma protein binding in mouse at 1 uM after 4 to 6 hrs by LC-MS/MS analysis; assay type: ADME, cell-free; conditions: read-out: PPB (converted)
# [36] = tested on: Enterococcus faecium; test: Antibacterial activity against Enterococcus faecium assessed as growth inhibition by broth microdilution assay; assay type: functional
# [37] = Half life in C57BL/6J mouse at 4 mg/kg, iv; assay type: ADME, organism-based; design: dose 4 mg/kg, route intravenous; conditions: in vivo
# [38] = Cmax in C57BL/6J mouse at 50 mg/kg, po; assay type: ADME, organism-based; design: dose 50 mg/kg, route oral; conditions: in vivo
# [39] = Volume of distribution in C57BL/6J mouse at 4 mg/kg, iv; assay type: ADME, organism-based; design: dose 4 mg/kg, route intravenous; conditions: in vivo
# [40] = Plasma protein binding in human at 1 uM after 4 to 6 hrs by LC-MS/MS analysis; assay type: ADME, cell-free; conditions: read-out: PPB (converted)
# [41] = Clearance in C57BL/6J mouse at 4 mg/kg, iv; assay type: ADME, organism-based; design: dose 4 mg/kg, route intravenous; conditions: in vivo
# [42] = Cmax in C57BL/6J mouse at 1000 mg/kg, po measured at 24 hrs; assay type: ADME, organism-based; design: dose 1000 mg/kg, route oral; conditions: in vivo
# [43] = Tmax in C57BL/6J mouse at 50 mg/kg, po; assay type: ADME, organism-based; design: dose 50 mg/kg, route oral; conditions: in vivo
# [44] = tested on: Mycobacterium tuberculosis; test: Bactericidal activity against Mycobacterium tuberculosis H37Rv assessed as log reduction of bacterial CFU at 20 times MIC after 1 week relative to control; assay type: functional
# [45] = tested on: Mycobacterium tuberculosis; test: Antitubercular activity against Mycobacterium tuberculosis H37Rv infected in C57BL/6 mouse assessed as reduction of bacterial CFU in lung at 500 to 1000 mg/kg, po administered for 8 days measured 24 hrs post last dose; assay type: functional, organism-based
# [46] = AUC (0 to infinity) in C57BL/6J mouse at 50 mg/kg, po; assay type: ADME, organism-based; design: time infinity, dose 50 mg/kg, route oral; conditions: plasma
# [47] = tested on: Mycobacterium tuberculosis; test: Antitubercular activity against Mycobacterium tuberculosis infected in human THP1 cells assessed as growth inhibition after 5 days by luciferase reporter gene assay; assay type: functional, THP-1; conditions: 120 h
# [48] = Oral bioavailability in C57BL/6J mouse at 50 mg/kg; assay type: ADME, organism-based; conditions: in vivo
# [49] = Total AUC in C57BL/6J mouse at 1000 mg/kg, po measured at 24 hrs; assay type: ADME, organism-based; design: time AUCmax, dose 1000 mg/kg, route oral; conditions: in vivo
# Sequence of Cytochrome P450 2D6 (P10635 whole entry): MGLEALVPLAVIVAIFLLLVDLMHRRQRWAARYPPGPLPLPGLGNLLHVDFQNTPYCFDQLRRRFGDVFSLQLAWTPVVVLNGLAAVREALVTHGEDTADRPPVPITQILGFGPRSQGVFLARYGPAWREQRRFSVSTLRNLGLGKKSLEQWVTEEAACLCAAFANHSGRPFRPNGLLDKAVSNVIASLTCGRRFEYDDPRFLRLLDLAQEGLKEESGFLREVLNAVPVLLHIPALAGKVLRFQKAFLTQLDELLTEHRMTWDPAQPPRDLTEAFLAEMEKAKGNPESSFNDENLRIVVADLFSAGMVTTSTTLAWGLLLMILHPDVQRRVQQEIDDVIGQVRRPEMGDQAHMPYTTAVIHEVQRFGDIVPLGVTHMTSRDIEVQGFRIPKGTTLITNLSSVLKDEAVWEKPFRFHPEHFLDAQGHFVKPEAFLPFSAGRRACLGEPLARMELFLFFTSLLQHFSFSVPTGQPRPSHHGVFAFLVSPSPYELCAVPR
# Sequence of Cytochrome P450 2C19 (P33261 whole entry): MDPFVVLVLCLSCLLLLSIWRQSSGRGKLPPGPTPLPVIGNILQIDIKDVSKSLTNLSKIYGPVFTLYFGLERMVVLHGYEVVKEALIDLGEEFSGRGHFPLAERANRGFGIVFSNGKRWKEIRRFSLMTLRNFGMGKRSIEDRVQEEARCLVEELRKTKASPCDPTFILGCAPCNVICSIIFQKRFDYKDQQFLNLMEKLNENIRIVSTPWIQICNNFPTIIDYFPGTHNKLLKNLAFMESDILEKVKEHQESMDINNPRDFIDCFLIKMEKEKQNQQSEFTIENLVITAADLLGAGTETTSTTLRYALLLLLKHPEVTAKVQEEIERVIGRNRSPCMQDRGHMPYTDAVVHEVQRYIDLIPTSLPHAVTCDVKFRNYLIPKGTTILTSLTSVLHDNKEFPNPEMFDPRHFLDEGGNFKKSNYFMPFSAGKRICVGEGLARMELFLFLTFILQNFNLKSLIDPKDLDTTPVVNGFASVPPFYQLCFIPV
# Sequence of Cytochrome P450 2C9 (P11712 whole entry): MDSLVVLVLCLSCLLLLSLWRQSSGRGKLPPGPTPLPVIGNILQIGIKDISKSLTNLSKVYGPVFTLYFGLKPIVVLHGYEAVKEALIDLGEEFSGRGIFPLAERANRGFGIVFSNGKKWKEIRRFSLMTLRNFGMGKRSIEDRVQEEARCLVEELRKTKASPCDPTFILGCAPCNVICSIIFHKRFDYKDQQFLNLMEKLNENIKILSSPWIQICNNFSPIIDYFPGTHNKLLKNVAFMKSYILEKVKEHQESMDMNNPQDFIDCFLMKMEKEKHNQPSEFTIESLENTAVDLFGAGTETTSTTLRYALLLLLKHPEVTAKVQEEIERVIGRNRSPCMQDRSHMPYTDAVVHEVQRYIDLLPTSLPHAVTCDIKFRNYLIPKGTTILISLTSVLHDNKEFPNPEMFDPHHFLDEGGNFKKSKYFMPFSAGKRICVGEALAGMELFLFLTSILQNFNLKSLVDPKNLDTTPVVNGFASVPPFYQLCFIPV
# Sequence of Cytochrome P450 3A4 (P08684 whole entry): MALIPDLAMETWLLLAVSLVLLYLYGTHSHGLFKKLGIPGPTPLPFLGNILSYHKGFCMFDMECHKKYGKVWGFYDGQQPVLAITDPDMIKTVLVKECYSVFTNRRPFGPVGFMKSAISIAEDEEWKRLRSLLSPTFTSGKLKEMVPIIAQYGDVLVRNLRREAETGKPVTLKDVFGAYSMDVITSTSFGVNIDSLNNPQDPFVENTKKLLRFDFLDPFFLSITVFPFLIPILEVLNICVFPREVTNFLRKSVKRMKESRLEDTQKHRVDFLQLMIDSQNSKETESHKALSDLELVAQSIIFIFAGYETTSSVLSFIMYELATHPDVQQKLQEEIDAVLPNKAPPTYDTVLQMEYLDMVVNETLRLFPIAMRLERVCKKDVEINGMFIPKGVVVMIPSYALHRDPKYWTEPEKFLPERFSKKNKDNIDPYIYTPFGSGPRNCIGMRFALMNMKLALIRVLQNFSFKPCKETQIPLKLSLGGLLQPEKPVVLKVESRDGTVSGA
# Sequence of Voltage-gated inwardly rectifying potassium channel KCNH2 (Q12809 whole entry): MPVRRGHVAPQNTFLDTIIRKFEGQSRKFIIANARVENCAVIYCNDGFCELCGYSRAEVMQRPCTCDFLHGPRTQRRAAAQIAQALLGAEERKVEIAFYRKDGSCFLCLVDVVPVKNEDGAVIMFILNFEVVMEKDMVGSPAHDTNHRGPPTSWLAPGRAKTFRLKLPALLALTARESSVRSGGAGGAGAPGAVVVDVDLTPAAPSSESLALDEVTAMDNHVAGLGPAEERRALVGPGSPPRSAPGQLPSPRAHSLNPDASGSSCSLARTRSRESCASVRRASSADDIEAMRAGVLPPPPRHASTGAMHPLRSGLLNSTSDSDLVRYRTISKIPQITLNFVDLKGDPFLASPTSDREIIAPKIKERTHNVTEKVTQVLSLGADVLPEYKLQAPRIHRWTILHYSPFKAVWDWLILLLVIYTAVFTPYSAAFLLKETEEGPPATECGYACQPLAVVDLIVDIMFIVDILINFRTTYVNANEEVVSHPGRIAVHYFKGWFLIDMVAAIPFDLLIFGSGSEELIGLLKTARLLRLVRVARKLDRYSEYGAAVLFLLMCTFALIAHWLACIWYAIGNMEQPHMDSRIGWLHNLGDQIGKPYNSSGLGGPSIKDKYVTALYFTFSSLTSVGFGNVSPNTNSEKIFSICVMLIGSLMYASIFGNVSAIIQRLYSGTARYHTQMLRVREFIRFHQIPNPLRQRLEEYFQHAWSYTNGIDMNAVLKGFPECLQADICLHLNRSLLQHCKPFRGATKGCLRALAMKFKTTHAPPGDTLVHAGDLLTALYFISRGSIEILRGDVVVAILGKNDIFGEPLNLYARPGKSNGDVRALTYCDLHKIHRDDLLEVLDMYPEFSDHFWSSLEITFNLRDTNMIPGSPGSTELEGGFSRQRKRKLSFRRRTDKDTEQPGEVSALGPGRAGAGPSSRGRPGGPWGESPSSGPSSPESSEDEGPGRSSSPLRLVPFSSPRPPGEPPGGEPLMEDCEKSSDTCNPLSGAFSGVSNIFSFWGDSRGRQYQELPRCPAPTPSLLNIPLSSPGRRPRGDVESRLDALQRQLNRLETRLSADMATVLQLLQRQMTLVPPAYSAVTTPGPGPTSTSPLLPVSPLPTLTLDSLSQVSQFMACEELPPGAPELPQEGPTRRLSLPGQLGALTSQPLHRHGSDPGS
smiles,measurement,setting,value
COc1c(N2C[C@@H]3CCCN[C@@H]3C2)c(F)cc2c(=O)c(C(=O)O)cn(C3CC3)c12 [MOXIFLOXACIN],fold change (FC),[1],3.48
same,Activity,[2],Active
CCNC(=O)[C@@H]1C[C@@H](NC(=O)c2cc(CC)nn2C)CN1C(=O)c1coc2ccccc12,MIC,[3],> 64 µM
same,half-life at 0.5 µM,[4],28 min
same,IC50,[5],> 50 µM
same,Drug metabolism,[6],Active
same,half-life at 10 µM,[7],27 min
same,IC50,[8],> 50 µM
same,chromatographic logD,[9],2.93
same,IC50,[10],> 50 µM
same,MIC,[11],> 64 µM
same,Drug metabolism,[12],Active
same,MIC,[13],8 µM
same,CLint scaled at 1 µM,[14],538 mL/min/kg
same,IC50,[15],> 50 µM
same,IC50,[16],> 50 µM
same,solubility kinetic at 1 h,[17],> 448 µM
same,MIC,[18],> 64 µM
same,Drug metabolism,[19],Active
same,MIC,[20],> 64 µM
same,Drug metabolism,[21],Active
same,Papp,[22],13 ×10⁻⁶ cm/s
same,IC50,[23],> 50 µM
same,CLH,[24],0.7 mL/min/g
same,Drug metabolism,[25],Active
same,Drug metabolism,[26],Active
same,half-life at 0.5 µM,[27],> 30 min
same,IC50,[28],0.034 µM
same,MIC,[29],> 64 µM
same,IC50,[30],> 50 µM
same,MIC,[31],> 64 µM
same,CLH,[32],2.6 mL/min/g
same,CLint scaled at 1 µM,[33],19 mL/min/kg
same,half-life at 10 µM,[34],227 min
same,fraction unbound at 1 µM,[35],0.144
same,MIC,[36],> 64 µM
CCc1cc(C(=O)N[C@@H]2C[C@@H](C(N)=O)N(C(=O)c3coc4ccccc34)C2)n(CC)n1,half-life,[37],28.2 min
same,Cmax,[38],1750 ng/mL
same,half-life at 0.5 µM,[4],> 30 min
same,Vd,[39],3.68 L/kg
same,IC50,[5],> 50 µM
same,fraction unbound at 1 µM,[40],0.013
same,IC50,[8],> 50 µM
same,chromatographic logD,[9],2.94
same,MIC90,[13],0.5 µM
same,IC50,[15],> 50 µM
same,clearance,[41],85.5 mL/min/kg
same,solubility kinetic at 1 h,[17],> 441 µM
same,Cmax,[42],23000 ng/mL
same,Tmax,[43],49.8 min
same,FC,[44],>2
same,Papp,[22],7.8 ×10⁻⁶ cm/s
same,Activity,[45],inactive
same,AUC(0-inf),[46],3590 ng·h/mL
same,IC50,[23],> 50 µM
same,CLH,[24],< 0.3 mL/min/g
same,half-life at 0.5 µM,[27],> 30 min
same,MIC,[47],0.24 µM
same,IC50,[28],0.004 µM
same,bioavailability,[48],35.6%
same,IC50,[30],> 50 µM
same,CLH,[32],< 0.3 mL/min/g
same,AUC at 24 h,[49],73700 ng·h/mL
same,fraction unbound at 1 µM,[35],0.153
